Reference: patent publication EP4707280A1, “1,4-CINEOLE DERIVATIVE AND INTERMEDIATE THEREOF, HERBICIDE CONTAINING SAID DERIVATIVE AS ACTIVE INGREDIENT, METHOD FOR USING HERBICIDE, AND METHOD FOR PREPARING AGROCHEMICAL COMPOSITION” (HOKKO CHEMICAL INDUSTRY CO., LTD., priority 2023, dated 2024)

Legend:
Type in all cases: in vivo
Digitaria ciliaris [1] = experiment: Test Example 4: herbicidal effect test by stem and leaf treatment in upland field; settings: 120 g per 10 ares, sprayed seven days after sowing, upland soil, 14 days after application; for inhibition at 1200 g/ha: Digitaria ciliaris, read-out: weed inhibition rate
Scirpus juncoides [2] = experiment: Test Example 2: herbicidal effect test by application during growth period of paddy rice; settings: Schoenoplectiella juncoides; 120 g per 10 ares; applied seven days after sowing, flooded pots; 14 days after application; read-out: weed inhibition rate
Procedure, shortened: (§1)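 Steps: puddle fertilized paddy soil; sow 30 seeds of each weed at 0–1 cm; flood to roughly 3 cm and keep in a glasshouse; at day 7 drop in diluted emulsifiable concentrate (120 g a.i. per 10 ares); score inhibition (%) 14 days later, two replicates.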

[3] = tested on: Echinochloa crus-galli var. formosensis; experiment: as above; settings: 120 g per 10 ares, applied seven days after sowing, flooded pots, 14 days after application; for inhibition at 1200 g/ha: Echinochloa crus-galli, read-out: weed inhibition rate
Procedure, shortened: as §1

Echinochloa crus-galli [4] = experiment: Test Example 4: herbicidal effect test by stem and leaf treatment in upland field; settings: 120 g per 10 ares, sprayed seven days after sowing, upland soil, 14 days after application; for inhibition at 1200 g/ha: Echinochloa crus-galli, read-out: weed inhibition rate
[5] = tested on: Echinochloa crus-galli var. formosensis; experiment: Test Example 6: herbicidal effect test by application during growth period of paddy rice (low dose); settings: Echinochloa crus-galli; 7.5 g per 10 ares; applied seven days after sowing, flooded pots; 14 days after application; read-out: weed inhibition rate
Procedure: (§2) The present test was conducted in duplicate for each chemical concentration group, and the weed inhibition rate (%) was determined 14 days after chemical application using the following formula (Math. 1). [formula]
(§3) Wagner pots with an area of […] were filled with paddy soil, followed by addition of water and incorporation of chemical fertilizer (N:P:K = 16:16:16), after which puddling was performed. After that, seeds of Echinochloa crus-galli var. formosensis, broad-leaved weeds (Monochoria vaginalis), and Scirpus juncoides were sown at a depth of 0 cm to 1 cm, 30 seeds each. Immediately after sowing, the pots were flooded and a water depth of approximately 3 cm was maintained. Subsequent management was conducted in a glass greenhouse. Seven days after sowing, an emulsifiable concentrate prepared according to Formulation Example 5 using the compound shown below was diluted with water, and a specified amount of the diluted solution was applied by dropper. The amount of the active ingredient to be applied was equivalent to 7.5 g per 10 ares. The test was conducted in duplicate for each chemical concentration group, and the herbicidal effect was evaluated 14 days after chemical application using the same criteria as in Test Example 1.

Scirpus juncoides [6] = experiment: Test Example 1: herbicidal effect test by soil application in paddy rice; settings: Schoenoplectiella juncoides, soil, 336 h; 120 g active ingredient per 10 ares; applied immediately after sowing, flooded pots; 14 days after application; read-out: weed inhibition rate
Procedure, shortened: (§4)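 Soil-applied test under flooded paddy conditions (~3 cm water) in a glass greenhouse. Seeds were sown shallow (0–1 cm, 30 per species), then compound was dripped in as diluted emulsifiable concentrate at 120 g a.i./10 a.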

[7] = tested on: Echinochloa crus-galli var. formosensis; experiment: as above; settings: 120 g active ingredient per 10 ares, applied immediately after sowing, flooded pots, 14 days after application; for pest or weed control at 1200 g/ha: Echinochloa crus-galli, soil, 336 h, read-out: weed inhibition rate
Procedure, shortened: as §4

[8] = tested on: Echinochloa crus-galli var. formosensis; experiment: Test Example 5: herbicidal effect test by soil application in paddy rice (low dose); settings: Echinochloa crus-galli, soil, 336 h; 7.5 g per 10 ares; applied immediately after sowing, flooded pots; 14 days after application; read-out: weed inhibition rate
Procedure: as §2
as §3, with “Immediately thereafter,” for “Seven days after sowing,”, “The test was conducted in duplicate for each chemical concentration group, and the herbicidal effect was evaluated 14 days after chemical application using the same criteria as in Test Example 1.” left out

Echinochloa crus-galli [9] = experiment: Test Example 3: herbicidal effect test by soil application in upland field; settings: 120 g per 10 ares, sprayed one day after sowing, 14 days after application; for inhibition at 1200 g/ha: Echinochloa crus-galli, read-out: weed inhibition rate
Procedure, shortened: (§5)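 Pre-emergence test: seeds mixed into top 1 cm of alluvial loam upland soil in pots; emulsifiable concentrate diluted in water sprayed on soil one day after sowing at 100 L/10 a, 120 g a.i./10 a. Weed inhibition rate (%) scored at 14 days, in duplicate.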

Digitaria ciliaris [10] = experiment: as above; settings: 120 g per 10 ares, sprayed one day after sowing, 14 days after application; for inhibition at 1200 g/ha: Digitaria ciliaris, read-out: weed inhibition rate
Procedure, shortened: as §5

Echinochloa crus-galli [11] = experiment: Test Example 8: herbicidal effect test by stem and leaf treatment in upland field (low dose); settings: Echinochloa crus-galli; 7.5 g per 10 ares; sprayed seven days after sowing, upland soil; 14 days after application; read-out: weed inhibition rate
Procedure: as §2
(§6) Pots with an area of 36 cm^2 were filled with upland soil (alluvial loam), twenty seeds each of weeds of Digitaria ciliaris, and Echinochloa crus-galli were uniformly mixed with the top 1 cm layer of soil and the surface was lightly pressed down. Seven days after sowing, an emulsifiable concentrate prepared according to Formulation Example 5 using the compound shown below was diluted with water, and the diluted solution was sprayed onto the soil surface at a rate of 100 liters per 10 ares. The amount of the active ingredient to be applied was equivalent to 7.5 g per 10 ares. Fourteen days after chemical application, the herbicidal effect was evaluated according to the same criteria as in Test Example 1.

Digitaria ciliaris [12] = experiment: as above; settings: 7.5 g per 10 ares, sprayed seven days after sowing, upland soil, 14 days after application; for inhibition at 75 g/ha: Digitaria ciliaris, read-out: weed inhibition rate
Procedure: as §2, §6

CC#CCO[C@@H]1C[C@]2(C(C)C)O[C@@]1(C)C[C@@H]2Br [1-674, (1S,2R,4R,5S)-5-bromo-2-but-2-ynoxy-1-methyl-4-isopropyl-7-oxabicyclo[2.2.1]heptane]
≥ 80%: inhibition at 1200 g/ha (Digitaria ciliaris [1]) | inhibition at 1200 g/ha (Scirpus juncoides [2]) | inhibition at 1200 g/ha [3] | inhibition at 1200 g/ha (Echinochloa crus-galli [4]) | inhibition at 75 g/ha [5] | pest or weed control at 1200 g/ha (Scirpus juncoides [6]) | pest or weed control at 1200 g/ha [7] | inhibition at 75 g/ha [8] | inhibition at 1200 g/ha (Echinochloa crus-galli [9]) | inhibition at 1200 g/ha (Digitaria ciliaris [10])

CC(C)[C@]12C[C@@H](OCc3ccccc3C(=O)O)[C@](C)(C[C@@H]1Br)O2 [1-706, 2-[[(1S,2R,4R,5S)-5-bromo-1-methyl-4-isopropyl-7-oxabicyclo[2.2.1]heptan-2-yl]oxymethyl]benzoic acid]
≥ 80%: inhibition at 1200 g/ha (Digitaria ciliaris [1]) | inhibition at 75 g/ha (Echinochloa crus-galli [11]) | inhibition at 75 g/ha (Digitaria ciliaris [12]) | inhibition at 1200 g/ha (Echinochloa crus-galli [4])

COc1ccccc1CO[C@@H]1C[C@]2(C(C)C)O[C@@]1(C)C[C@@H]2Br [1-18, (1S,2R,4R,5S)-5-bromo-2-[(2-methoxyphenyl)methoxy]-1-methyl-4-isopropyl-7-oxabicyclo[2.2.1]heptane]
≥ 80%: inhibition at 1200 g/ha (Digitaria ciliaris [1]) | inhibition at 75 g/ha (Echinochloa crus-galli [11]) | inhibition at 75 g/ha (Digitaria ciliaris [12]) | inhibition at 1200 g/ha [3] | inhibition at 1200 g/ha (Echinochloa crus-galli [4]) | inhibition at 75 g/ha [5] | pest or weed control at 1200 g/ha [7] | inhibition at 75 g/ha [8]

CC(C)[C@@]12C[C@H](OCc3ccccc3F)[C@@](C)(C[C@H]1Br)O2 [1-1028, (1R,2S,4S,5R)-5-bromo-2-[(2-fluorophenyl)methoxy]-1-methyl-4-isopropyl-7-oxabicyclo[2.2.1]heptane]
≥ 80%: inhibition at 1200 g/ha (Digitaria ciliaris [1]) | inhibition at 75 g/ha (Echinochloa crus-galli [11]) | inhibition at 1200 g/ha (Echinochloa crus-galli [4])

Cc1cccc(C)c1CO[C@@H]1C[C@]2(C(C)C)O[C@@]1(C)C[C@@H]2Br [1-17, (1S,2R,4R,5S)-5-bromo-2-[(2,6-dimethylphenyl)methoxy]-1-methyl-4-isopropyl-7-oxabicyclo[2.2.1]heptane]
≥ 80%: inhibition at 1200 g/ha (Digitaria ciliaris [1]) | inhibition at 75 g/ha (Echinochloa crus-galli [11]) | inhibition at 1200 g/ha [3] | inhibition at 1200 g/ha (Echinochloa crus-galli [4]) | pest or weed control at 1200 g/ha [7] | inhibition at 75 g/ha [8] | inhibition at 1200 g/ha (Echinochloa crus-galli [9]) | inhibition at 1200 g/ha (Digitaria ciliaris [10])

COc1ccc(CO[C@@H]2C[C@]3(C(C)C)O[C@@]2(C)C[C@@H]3Br)cc1 [1-686, (1S,2R,4R,5S)-5-bromo-2-[(4-methoxyphenyl)methoxy]-1-methyl-4-isopropyl-7-oxabicyclo[2.2.1]heptane]
≥ 80%: inhibition at 1200 g/ha (Digitaria ciliaris [1]) | inhibition at 75 g/ha (Echinochloa crus-galli [11]) | inhibition at 75 g/ha (Digitaria ciliaris [12]) | inhibition at 1200 g/ha (Echinochloa crus-galli [4])

CC(C)[C@@]12C[C@H](OCc3ccccc3F)[C@@](C)(C[C@H]1C)O2 [1-1221, (1R,2S,4S,5R)-2-[(2-fluorophenyl)methoxy]-1,5-dimethyl-4-isopropyl-7-oxabicyclo[2.2.1]heptane]
≥ 80%: inhibition at 1200 g/ha (Digitaria ciliaris [1]) | inhibition at 75 g/ha (Digitaria ciliaris [12])

COC(=O)c1ccccc1CO[C@@H]1C[C@]2(C(C)C)O[C@@]1(C)C[C@@H]2Br [1-709, methyl 2-[[(1S,2R,4R,5S)-5-bromo-1-methyl-4-isopropyl-7-oxabicyclo[2.2.1]heptan-2-yl]oxymethyl]benzoate]
≥ 80%: inhibition at 1200 g/ha (Digitaria ciliaris [1]) | inhibition at 75 g/ha (Echinochloa crus-galli [11]) | inhibition at 75 g/ha (Digitaria ciliaris [12]) | inhibition at 1200 g/ha (Echinochloa crus-galli [4])

CC(C)[C@]12C[C@@H](OCC3CCCCC3)[C@](C)(C[C@@H]1I)O2 [1-736, (1R,2S,4S,5R)-5-(cyclohexylmethoxy)-2-iodo-1-isopropyl-4-methyl-7-oxabicyclo[2.2.1]heptane]
≥ 80%: inhibition at 1200 g/ha (Digitaria ciliaris [1]) | inhibition at 1200 g/ha (Scirpus juncoides [2]) | inhibition at 1200 g/ha [3] | inhibition at 1200 g/ha (Echinochloa crus-galli [4]) | inhibition at 75 g/ha [5] | pest or weed control at 1200 g/ha (Scirpus juncoides [6]) | pest or weed control at 1200 g/ha [7] | inhibition at 75 g/ha [8] | inhibition at 1200 g/ha (Echinochloa crus-galli [9]) | inhibition at 1200 g/ha (Digitaria ciliaris [10])

CCC[C@]1(O)C[C@]2(C)O[C@@]1(C(C)C)C[C@H]2OCc1ccccc1F [1-934, (1R,2S,4S,5R)-5-[(2-fluorophenyl)methoxy]-1-isopropyl-4-methyl-2-propyl-7-oxabicyclo[2.2.1]heptan-2-ol]
≥ 80%: inhibition at 1200 g/ha (Digitaria ciliaris [1]) | inhibition at 75 g/ha (Echinochloa crus-galli [11]) | inhibition at 1200 g/ha [3] | inhibition at 1200 g/ha (Echinochloa crus-galli [4])

CC(C)[C@@]12C[C@H](OCc3ccccc3F)[C@@](C)(C[C@@H]1C)O2 [1-1222, (1R,2S,4S,5S)-2-[(2-fluorophenyl)methoxy]-1,5-dimethyl-4-isopropyl-7-oxabicyclo[2.2.1]heptane]
≥ 80%: inhibition at 75 g/ha (Echinochloa crus-galli [11]) | inhibition at 1200 g/ha (Echinochloa crus-galli [4])

CC(C)[C@]12C[C@@H](OCc3ccccc3C(F)(F)F)[C@](C)(C[C@@H]1Br)O2 [1-700, (1S,2R,4R,5S)-5-bromo-l-methyl-4-isopropyl-2-[[2-(trifluoromethyl)phenyl]methoxy]-7-oxabicyclo[2.2.1]heptane]
≥ 80%: weed inhibition rate (Digitaria ciliaris [1]) | weed inhibition rate (Digitaria ciliaris [12]) | weed inhibition rate [3] | weed inhibition rate (Echinochloa crus-galli [4]) | weed inhibition rate [7] | weed inhibition rate (Echinochloa crus-galli [9]) | weed inhibition rate (Digitaria ciliaris [10])
